8 compounds from patent US5441983A, “Treatment of infection by enveloped virus with calix(N)arene compounds” (Genelabs Incorporated, priority 1992, dated 1995) can be followed below.

One experiment relates to HIV-RF-II. The experiment can be described thus: Inhibition of syncytia formation, HIV-RF-II. The conditions noted are these: Human immunodeficiency virus 1, 18 h, read-out: HIV-RF-II ED100, complete inhibition of syncytia formation.
The next experiment has as its system HIV-HXB. As to the kind of experiment: Inhibition of syncytia formation, HIV-HXB (HTLV-IIIB). Particulars: Human immunodeficiency virus 1, 18 h, read-out: HIV-HXB ED100, complete inhibition of syncytia formation.

Method for HIV-HXB: (§1) Briefly, cells chronically infected with HTLV-IIIB or RF-II HIV strains were incubated in the presence of serial dilutions of the selected KY compound, then further cocultured with indicator cells. The extent of syncytia formation was scored under phase microscopy.
(§2) Representative calix(n)arene compounds from Table 2 were tested for inhibition of cytopathic effects in cells infected with one of two HTLV-III strains, HTLV-IIIB and RF-II strains, as described in Example 12, and in the subsection above.
(§3) Human CD4^+ indicator cells (VB) and chronically infected H9 cells were maintained in RPMI-1640 medium supplemented with 5% fetal calf serum, 100 Units of penicillin per ml and 100 μg of streptomycin per ml at 37° C. in a humidified incubator containing 7% CO2.
(§4) For the fusion assay, serial dilutions between 1:2 and 1:2^8 of a selected KY compound, 1 mg/ml in PBS were made in a 96 well round bottom plate. The diluted KY compound was transferred to a 96 well flat-bottom plate. To each well was added 25 μg chronically infected H9 cells (at 2×10^6, cells/ml), or cells chronically infected with RF-II strain HIV, followed by incubation at 37° C. for 45 minutes. To each well was then added 25 μl VB cells (about 5×10^4 cells), and the cells and virus isolates were cocultured for 18 hours in a humid 5% CO2 atmosphere.
Method for HIV-RF-II: as §1, §2, §3, §4

With `O=C(O)CNS(=O)(=O)c1cc2cc(S(=O)(=O)NCC(=O)O)c3c(O)c2c(O)c1Cc1c(S(=O)(=O)NCC(=O)O)cc2cc(S(=O)(=O)NCC(=O)O)c(c(O)c2c1O)Cc1c(S(=O)(=O)NCC(=O)O)cc2cc(S(=O)(=O)NCC(=O)O)c(c(O)c2c1O)Cc1c(S(=O)(=O)NCC(=O)O)cc2cc(S(=O)(=O)NCC(=O)O)c(c(O)c2c1O)C3` [KY-357], the EC100 is 63 µg/mL in the experiment on HIV-RF-II and 32 µg/mL with HIV-HXB.

With `CCCC(=O)Oc1c2c(S(=O)(=O)O)cc3cc(S(=O)(=O)O)c(c(OC(=O)CCC)c13)Cc1c(S(=O)(=O)O)cc3cc(S(=O)(=O)O)c(c(OC(=O)CCC)c3c1OC(=O)CCC)Cc1c(S(=O)(=O)O)cc3cc(S(=O)(=O)O)c(c(OC(=O)CCC)c3c1OC(=O)CCC)Cc1c(S(=O)(=O)O)cc3cc(S(=O)(=O)O)c(c(OC(=O)CCC)c3c1OC(=O)CCC)C2` [KY-281], the EC100 was 32 µg/mL in the experiment on HIV-RF-II and 16 µg/mL with HIV-HXB.

In the case of `CCCCCC(=O)Oc1c2c(S(=O)(=O)O)cc3cc(S(=O)(=O)O)c(c(OC(=O)CCCCC)c13)Cc1c(S(=O)(=O)O)cc3cc(S(=O)(=O)O)c(c(OC(=O)CCCCC)c3c1OC(=O)CCCCC)Cc1c(S(=O)(=O)O)cc3cc(S(=O)(=O)O)c(c(OC(=O)CCCCC)c3c1OC(=O)CCCCC)Cc1c(S(=O)(=O)O)cc3cc(S(=O)(=O)O)c(c(OC(=O)CCCCC)c3c1OC(=O)CCCCC)C2` [KY-291], the EC100 in the experiment on HIV-RF-II was determined as 32 µg/mL; with HIV-HXB, 16 µg/mL.

For the compound `CC(=O)Oc1c2c(S(=O)(=O)O)cc3cc(S(=O)(=O)O)c(c(OC(C)=O)c13)C(C(=O)O)c1c(S(=O)(=O)O)cc3cc(S(=O)(=O)O)c(c(OC(C)=O)c3c1OC(C)=O)C(C(=O)O)c1c(S(=O)(=O)O)cc3cc(S(=O)(=O)O)c(c(OC(C)=O)c3c1OC(C)=O)C(C(=O)O)c1c(S(=O)(=O)O)cc3cc(S(=O)(=O)O)c(c(OC(C)=O)c3c1OC(C)=O)C2C(=O)O` (stereo not drawn) [KY-272], the results for the EC100 with HIV-RF-II and in the experiment with HIV-HXB were 250 µg/mL and 63 µg/mL, respectively.

Regarding `COc1c2c(S(=O)(=O)O)cc3cc(S(=O)(=O)O)c(c(OC)c13)C(C(=O)O)c1c(S(=O)(=O)O)cc3cc(S(=O)(=O)O)c(c(OC)c3c1OC)C(C(=O)O)c1c(S(=O)(=O)O)cc3cc(S(=O)(=O)O)c(c(OC)c3c1OC)C(C(=O)O)c1c(S(=O)(=O)O)cc3cc(S(=O)(=O)O)c(c(OC)c3c1OC)C2C(=O)O` (stereo not drawn) [KY-284], the EC100 with HIV-RF-II came to 32 µg/mL; in the experiment with HIV-HXB it was 16 µg/mL.

For the compound `O=S(=O)(O)c1c2c(O)c3c(O)c(c(S(=O)(=O)O)c(O)c3c1O)C(c1ccccc1)c1c(S(=O)(=O)O)c(O)c3c(O)c(S(=O)(=O)O)c(c(O)c3c1O)C(c1ccccc1)c1c(S(=O)(=O)O)c(O)c3c(O)c(S(=O)(=O)O)c(c(O)c3c1O)C(c1ccccc1)c1c(S(=O)(=O)O)c(O)c3c(O)c(S(=O)(=O)O)c(c(O)c3c1O)C2c1ccccc1` (stereo not drawn) [KY-85], the EC100 in the experiment on HIV-HXB came to 32 µg/mL.

Consider `CCCCC(=O)Oc1c2c(S(=O)(=O)O)cc3cc(S(=O)(=O)O)c(c(OC(=O)CCCC)c13)Cc1c(S(=O)(=O)O)cc3cc(S(=O)(=O)O)c(c(OC(=O)CCCC)c3c1OC(=O)CCCC)Cc1c(S(=O)(=O)O)cc3cc(S(=O)(=O)O)c(c(OC(=O)CCCC)c3c1OC(=O)CCCC)Cc1c(S(=O)(=O)O)cc3cc(S(=O)(=O)O)c(c(OC(=O)CCCC)c3c1OC(=O)CCCC)C2` [KY-289], for which the EC100 with HIV-RF-II was determined as 32 µg/mL; in the experiment with HIV-HXB, 16 µg/mL.

On to `CC=CC(=O)Oc1c2c(S(=O)(=O)O)cc3cc(S(=O)(=O)O)c(c(OC(=O)C=CC)c13)Cc1c(S(=O)(=O)O)cc3cc(S(=O)(=O)O)c(c(OC(=O)C=CC)c3c1OC(=O)C=CC)Cc1c(S(=O)(=O)O)cc3cc(S(=O)(=O)O)c(c(OC(=O)C=CC)c3c1OC(=O)C=CC)Cc1c(S(=O)(=O)O)cc3cc(S(=O)(=O)O)c(c(OC(=O)C=CC)c3c1OC(=O)C=CC)C2` [KY-293], for which the EC100 in the experiment on HIV-RF-II came out at 63 µg/mL; in the experiment on HIV-HXB it was 16 µg/mL.
